Measured values from a melting point compilation (Tetko et al.).

| Compound | melting point [°C] |
| --- | --- |
| COc1ccc(F)cc1 | -45 |
| N#CC1(O)CN2CCC1CC2 (stereo not given) | 156 to 159 |
| ON=Cc1ccc(OC(F)(F)F)cc1 | 41 |
| Clc1ccc(-c2cn3c(n2)sc2ccccc23)cc1 | 158 to 160 |
| COc1ccc(OC)c(F)c1 | 25 |
| COCCOC1=C(N2CC2)C(=O)C(OCCOC)=C(N2CC2)C1=O | 80 |
| O=[N+]([O-])c1ccc(SCCO)cc1 | 60 to 61 |
| Nc1cccnc1Cl | 78 |
| O=C1c2cc3ccccc3cc2C(=O)c2cc3ccccc3cc21 | 391 to 394 |
| O=C(CC(c1ccccc1)c1ccccc1)c1ccccc1 | 96 |
| COc1cccc(N2C(=O)C=CC2=O)c1 | 62 to 66 |
| Brc1ccc2nsnc2c1 | 59 to 60 |
| N#Cc1cc2ccccc2cc1C#N | 253 to 257 |
| OCC(F)(F)C(F)F | -15 |
| Oc1c(F)cccc1Cl | 63 |
| O=C(O)CCSCCCSCCC(=O)O | 107 to 109 |
| CCc1c(C)cc(C)cc1C | -16 |
| COc1ccccc1-c1nnc2n1NC(c1ccccc1OC)S2 (stereo not given) | 173 |
| CCCCCCCC(N)P(=O)(O)O (stereo not given) | 269 to 270 |
| Nc1c(Cl)cc(Br)cc1Cl | 87 |
| Nc1nc(=O)[nH]cc1Br | 240 to 243 |
| OCc1ccc(F)cc1Cl | 44.5 |
| Cc1cc(O)c([N+](=O)[O-])c(=O)[nH]1 | 293 to 296 |
| CC(Br)C(=O)O (stereo not given) | 25 |
| Cc1c(C(C)C2NCC(C)CC2O)ccc2c1CC1C2CC=C2CC(O)CCC21C (stereo not given) | 206 |

| Compound | melting point [°C] |
| --- | --- |
| N#CCc1ccccc1Br | 19 |
| OC1(C#CC#CC2(O)CCCCC2)CCCCC1 | 175 |
| c1ccc(CCc2ccccn2)cc1 | -3 |
| NCc1cc2cc(Br)ccc2o1 | 39 to 40 |
| Sc1cccc(Cl)c1Cl | 57 to 61 |
| Cc1nc(-c2ccccn2)nc(O)c1Cl | 142 to 144 |
| C(=Cc1ccccc1)CCC=Cc1ccccc1 | 82 |
| COc1ccc(-c2csc(/C(C#N)=C\c3cccnc3)n2)cc1 | 235 |
| C=CCc1ccccc1 | -40 |
| OCc1ccc2occc2c1 | 35 to 36 |
| O=C1/C(=N\Nc2cccc([N+](=O)[O-])c2)C(C(F)(F)F)=NN1c1ccccc1 | 150 |
| COc1ccc2cc(Br)ccc2c1CC#N | 147 to 148 |
| O=[N+]([O-])c1ccc2c(c1)NCC2 | 68 |
| OCc1nccs1 | 62 to 64 |
| O=c1on(-c2ccccc2)cc1-c1ccccc1 | 175 |
| Nc1ncnc2[nH]cnc12 | 360 to 365 |
| O=C1C2(CCCCC2)C(=O)C12CCCCC2 | 166 |
| CC12CCC3(CC1CCC1C2CCC2(C)C1CCC2(C)O)OCCO3 (stereo not given) | 192 to 193 |
| O=CC(C=O)c1ccncc1 | 320 |
| Cn1c(/C(C#N)=N/Nc2cccc(O)c2)nc2ccccc21 | 285 |
| CC(CCc1ccccc1)NC(C)C(O)c1cc(I)c(O)c(I)c1 (stereo not given) | 212 |
| O=C(Oc1c(-c2ccccc2)[nH]c2cc([N+](=O)[O-])ccc12)c1ccccc1 | 229 |
| C1COCCOCCOCCOCCOCCO1 | 39 |
| O=C1CCCCCCCCCCC(=O)OCCO1 | 18 |
| O=C1OC(c2ccccc2)=NC1=Cc1ccc(-c2cccc([N+](=O)[O-])c2)o1 | 144 to 145 |

| Compound | melting point [°C] |
| --- | --- |
| CC1(C)C(C(=O)OC(C#N)c2cccc(Oc3ccccc3)c2)C1(C)C (stereo not given) | 47.5 |
| Nc1cnccc1C(F)(F)F | 55 to 56 |
| OCCc1c(Cl)cccc1Cl | 59 to 65 |
| CCCOC1CCC2(C)C(CCC3C2CCC2(C)C(OCCC)CCC32)C1 (stereo not given) | 112 to 135 |
| N#CC=Cc1cc(C(F)(F)F)cc(C(F)(F)F)c1 | 80 |
| c1ccc(CC(c2ccccc2)c2ccccc2)cc1 | 52 |
| O=C1C(=CC2C(=O)N(c3ccccc3)N=C2c2ccc([N+](=O)[O-])cc2)C(c2ccc([N+](=O)[O-])cc2)=NN1c1ccccc1 (stereo not given) | 283 to 284 |
| ClCc1cccc2ccccc12 | 32 |
| Cc1cc2occ(C#N)c(=O)c2cc1C | 206 to 210 |
| Nc1ncccc1O | 170 to 176 |
| COC(=O)c1ccc(CBr)cc1 | 56 |
| CCOc1ccc(NC(=O)C(F)(F)C(F)(F)C(F)(F)C(F)(F)C(F)(F)C(F)(F)C(F)(F)C(F)(F)F)cc1 | 135 |
| COc1ccc2c(c1)CC(CCC(=O)O)(CCC(=O)O)C2=O | 151 |
| CC(C)(C)N(CCO)CCO | 42 |
| CSc1ccccc1C#N | 36 |
| O=C(CCCCl)c1ccc(Br)cc1 | 37 |
| OC[C@@H](O)COCc1ccccc1 | 24 to 27 |
| COc1ccc(Cn2ncc(Cl)c(Cl)c2=O)cc1 | 117 to 120 |
| Fc1c(F)c(F)c(Br)c(F)c1F | -31 |
| N#Cc1cc(F)c(N)cc1F | 95 to 97 |
| Clc1cc2oc3c(Cl)c(Cl)ccc3c2c(Cl)c1Cl | 206 |
| COc1cc2c(cc1OC)OC(C)(C)C=C2 | 46 |
| CSc1cnccn1 | 44 to 47 |

Further lines, results first:

| melting point [°C] | Compound |
| --- | --- |
| 85 to 88 | Cc1cc(C(=O)NN)nn1C(C)(C)C |
| 137 | NNc1ccc(Cl)nn1 |
| 105 | Cc1cc(C)c2c(c1)OC(=O)C2 |
| 144 to 145 | CCOC(=O)c1cc2cc(OC(F)(F)F)ccc2[nH]1 |
| 117 to 122 | COc1ccc(C=CC(=O)c2ccc(F)cc2)c(OC)c1 |
| 50 to 52 | CCOC(=O)c1c2ccccc2nn1C |
| 158 | O=C(Nc1ccccc1)N(C(=O)C1Cc2ccccc21)c1ccccc1 (stereo not given) |
| 179 | CCOC(=O)c1ccc([N+](=O)[O-])cc1NC(=O)c1ccccc1 |
| 89 to 94 | CC(C)(C)OC(=O)Nc1ccc(CN)cc1 |
| 69 | CC1=CC(O)c2ccccc21 (stereo not given) |
| 100 to 104 | CC(C)(C)OC(=O)NC(COC1CCCCO1)CS(=O)(=O)c1ccccc1 (stereo not given) |
| 228 to 230 | COc1ccccc1-c1nnc2n1NC(c1ccc(N(C)C)cc1)S2 (stereo not given) |
| 147 to 148 | O=C(O)CCC12CC3CC(CC(C3)C1)C2 |
| 114 to 116 | CCCCCCCCCCCC(=O)N1CC(=O)NC(=O)C1 |
| -18 | CCCCCC(=O)CC(C)=O |
| 194 | O=C(O)c1cccc(Cl)n1 |
| 263 to 265 | N=C(N)NCCS(=O)(=O)O |
| 5 to 6 | CCCCCC=CC(=O)O |
| 239 to 246 | CC(=O)Oc1cc2c(cc1Cl)C1(OC(=O)c3ccccc31)c1cc(Cl)c(OC(C)=O)cc1O2 |

| melting point [°C] | Compound |
| --- | --- |
| 150 to 151 | ON=C1C2CC3CC(C2)CC1C3 |
| 133 | COc1ccc([N+](=O)[O-])c(C(=O)O)c1 |
| 206 to 209 | CC(C)(C)OC(=O)n1cc(C(=O)O)c2cc(Br)ccc21 |
| 55 to 56 | CN1CCN(C)c2cc(Br)ccc21 |
| 226 | N=C(N)NC(=O)Cc1c(Cl)cccc1Cl |
| 129 to 132 | COc1ccc(C(=O)CC#N)cc1 |
| 162 | Cn1nnc2cc(C=O)ccc21 |
| 216 to 217 | CC1CCC(C(C)C)/C(=N\NC(N)=O)C1 (stereo not given) |
| 189 to 192 | O=C(O)c1cc2ccccn2n1 |
| 81 | CC(C)(C)c1ccc2c(c1)-c1cc(C(C)(C)C)ccc1C2 |
| 140 | O=C(O)C[C@H](NC(=O)OCC1c2ccccc2-c2ccccc21)c1cccc([N+](=O)[O-])c1 |
| 91 to 95 | CC(=O)Oc1cc(OC(C)=O)cc(C(C)=O)c1 |
| 167 | O=C(O)/C=C/c1cccc(F)c1 |
| 194 to 195 | Cc1oc(S(=O)(=O)N2CCCCC2)cc1C(=O)O |
| 235 | CC(=O)OCC(=O)C1(O)C(OC(C)=O)CC2C3CCC4=CC(=O)C=CC4(C)C3(F)C(O)CC21C (stereo not given) |
| 118 to 124 | O=C(N[C@H]1CC=CC[C@H]1C(=O)O)OCc1ccccc1 (relative stereo) |
| 201 | CCOC(=O)C1=C(N)Oc2ccc3ccccc3c2[C@H]1c1ccc(C)cc1 |
| 200 to 201 | CC(=O)N(C)c1cccc(-c2ccc3nnc(C)n3n2)c1 |
| 158 | CC(C)(C)N(NC(=O)c1ccccc1)C(=O)c1cc(F)c(F)c(F)c1F |

| melting point [°C] | Compound |
| --- | --- |
| 35 | CC(=O)OC1CCCCC1C(C)(C)C (stereo not given) |
| -13 | O=C1CCCC1C1CCCC1 (stereo not given) |
| 245 | O=C(O)c1cnc2ccc(OC(F)(F)F)cc2c1O |
| 62 | CC(C)(C)c1ccc(OC(=O)c2ccccc2O)cc1 |
| 127 to 130 | CC(=O)OCC1OC(C(N)=O)C(OC(C)=O)C(OC(C)=O)C1OC(C)=O (stereo not given) |
| 139 | CCOC(=O)C=Cc1ccc([N+](=O)[O-])cc1 |
| 260 | NC(Cc1ccc(Cl)cc1)C(=O)O (stereo not given) |
| 200 to 215 | O=C(O)c1cnccc1Cl |
| 65 to 70 | CC(C)(C)OC(=O)C[C@H]1C[C@@H](CC#N)OC(C)(C)O1 |
| 100 | N#CC(=Cc1ccc(Cl)cc1)C(N)=O |
| 35 | Cc1nn(C)c(C)c1Br |
| 25 | CCCCC=CCCC=CCCCCCCOC(C)=O |
| 109 | COc1c(C)c(C)c(OC)c2c1CC2=O |
| 71 | CC(C)NCC(O)COc1ccc(CCOCC2CC2)cc1 (stereo not given) |
| 148 | Cc1ccc(O[C@H]2CC[C@@]3(C)C(=CC[C@H]4[C@@H]5CC[C@H]([C@H](C)CCCC(C)C)[C@@]5(C)CC[C@@H]43)C2)cc1 |
| 136 to 138 | Cc1cccc(C)c1C(N)=O |
| 65 | CCC1(C)CC(=O)NC1=O (stereo not given) |
| 139 to 141 | O=C(O)c1cnn(-c2ccccc2)c1C(F)(F)F |
| 205 | CCN1CCN(C(=O)N[C@@H](C(=O)O)c2ccc(O)cc2)C(=O)C1=O |
